# Laboratory results as given in US10426772B2, “Use of ergot alkaloids as an anthelmintic agent” (priority 2016, dated 2019).
# Columns and labels:
# adult schistosomes = assay: Egg laying assay, adult schistosome pairs in vitro; assay type: cell-based, Schistosoma mansoni
# Description: Female Swiss Webster mice infected with S. mansoni cerceria (NMRI strain) were sacrificed 49 days post infection by CO2 euthanasia. Adult schistosomes were recovered by perfusion with a solution of 0.85% sodium chloride+0.75% sodium citrate and dissection of the mesenteric vasculature. Harvested schistosomes were washed in RPMI 1640 Medium with GlutaMAX+5% heat inactivated FBS (Gibco) and Penicillin-Streptomycin (final concentration 100 units/mL, ThermoFisher cat #15140122).
# For egg laying assays, adult schistosomes were transferred to 24 well plates the day after harvesting from mice (5 worm pairs in 2 mL media per well). Eggs were counted under a stereomicroscope daily, after which worms were transferred to a new well with fresh drug containing media. Egg counts were recorded for five days, and data processed as the mean number of eggs laid per worm pair/day. Measurements of egg dimensions were quantified using the “analyze>measure” function in ImageJ to record the length and width of individual eggs.
# Sm.5HTR = Sm.5HTR (Schistosoma mansoni, UniProt A0A173FEI8); assay: cell-based
# Sequence of Sm.5HTR (A0A173FEI8 entry or part of it): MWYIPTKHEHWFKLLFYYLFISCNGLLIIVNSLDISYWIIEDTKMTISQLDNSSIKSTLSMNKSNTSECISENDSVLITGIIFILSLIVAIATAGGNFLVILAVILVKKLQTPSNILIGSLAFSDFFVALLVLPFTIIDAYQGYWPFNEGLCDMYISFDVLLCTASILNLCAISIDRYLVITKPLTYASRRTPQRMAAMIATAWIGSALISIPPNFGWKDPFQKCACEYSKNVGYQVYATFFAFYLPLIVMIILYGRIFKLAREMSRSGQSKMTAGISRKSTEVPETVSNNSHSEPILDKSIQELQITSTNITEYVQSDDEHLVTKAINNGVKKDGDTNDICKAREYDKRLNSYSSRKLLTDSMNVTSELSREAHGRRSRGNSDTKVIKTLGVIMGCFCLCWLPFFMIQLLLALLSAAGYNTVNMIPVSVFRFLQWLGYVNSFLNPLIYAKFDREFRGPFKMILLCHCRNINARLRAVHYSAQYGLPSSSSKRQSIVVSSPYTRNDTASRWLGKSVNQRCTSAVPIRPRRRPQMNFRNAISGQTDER
# Procedure: HEK293 cells (ATCC CRL-1573.3) were cultured in growth media consisting of DMEM supplemented with GlutaMAX (Gibco cat #10566016)+10% heat inactivated fetal bovine serum and penicillin-streptomycin (100 units/mL, ThermoFisher). Stable cell lines for the pGloSensor-22F cAMP Plasmid (Promega) and schistosome 5HTRs in pcDNA3.1(−) were selected with hygromycin (200 μg/mL) and G418 (400 μg/mL). The correct identity of each stably expressed sequence was verified by isolating total RNA from each stable line (TRIzol Reagent, Ambion) and amplifying the sequence of interest with gene specific primers flanking the 5′ and 3′ regions of the cds (SuperScript® III One-Step RT-PCR System, Invitrogen). PCR products were ligated into a TA cloning vector (pGEM-T Easy, Promega) and sequenced.
# HEK293 lines stably expressing both the 22F cAMP sensor and Sm.5HTR were cultured in growth media supplemented with 10% dialyzed FRS. For cAMP assays in 96 well format, cells cultured in T-75 flasks were trypsinized (TrypLE Express, Gibco) and plated in solid white 96 well plates (Costar cat #3917) the day prior to assay at a density of 2.5×10^4 cells/well. The following day media was removed and replaced with assay buffer consisting of HBSS buffered with HEPES (20 mM, pH 7.4)+BSA (0.1% w/v) and D-luciferin sodium salt (1 mg/mL, Gold Biotechnology). Plates were equilibrated at room temperature for 1 hour, at which point 3-Isobutyl-1-methylxanthine (IBMX 200 μM, Sigma Aldrich) was added. Plates were equilibrated a further 30 minutes prior to test compound addition. […] Readings performed in 384 well format were modified so that cells were assayed in suspension. Cells were grown to 70% confluence in T-75 flasks, trypsinized and pelleted (300 RCF×5 minutes). Media was removed and cells were resuspended in 25 mL assay buffer supplemented with IBMX (200 μM). A 96 channel semi-automated pipet (Eppendorf epMotion 96) delivered 55 μL of cell suspension per well (5000 cells/well) into solid white 384 plates (Corning 3574).
smiles,measurement,setting,value
CN1C[C@H](C(=O)N[C@]2(C)O[C@@]3(O)[C@@H]4CCCN4C(=O)[C@H](Cc4ccccc4)N3C2=O)C=C2c3cccc4[nH]cc(c34)C[C@H]21 [ergotamine],reduction in size of eggs,"adult schistosomes; FIGS. 19H&I, ergotamine 1 μM",43%
same,decrease of egg laying,"adult schistosomes; serotonin 100 μM, forskolin 100 μM, LSD 10 μM, nuciferine 10 μM, ergotamine 5 μM (FIG. 19F), eggs per worm pair/day over five days",54%
same,EC50,Sm.5HTR,43 ± 13 nM
same,Emax,"Sm.5HTR; HEK293, read-out: Sm.5HTR Emax",95 ± 5%
